Patent US9376662B2, “Increasing cell culture population doublings for long-term growth of finite life span human cell cultures” (The Regents of the University of California, priority 2006, dated 2016)
Entries after “also recorded” stand apart in the source; their conditions may differ.

Key:
Type in all cases: cell-based, human
pre-stasis HMEC [1] = assay: Growth of pre-stasis HMEC on different substrates; settings: compared with plastic
Procedure: Referring to FIG. 18, 184 HMEC, batch f, were grown in MM in primary culture and switched to M85 at passage 2. At passage 4 they were switched to M87 and grown on plastic (♦), laminin on plastic (▪), or laminin on LUMOX dishes (▴) (which allow the cells to grow on a gas-permeable substrate).
Referring to FIG. 19, pre-stasis 48RT HMEC were grown from primary culture in M85+oxytocin and switched at passage 6 to growth on laminin on plastic or plastic alone.

p16 protein = assay: Immunohistochemical staining for p16 protein and labeling index (LI) in pre-stasis HMEC; settings: 184 HMEC in M85, 48 days post-seeding, 20% O2
Source text: Note the gradually increasing expression of p16 with passage and the gradual reduction in the growing population. Note also the reciprocity between positive labeling of the small cell population with BrdU and the positive staining of the larger cell population for p16 expression.
Referring now to FIGS. 3-5, which show pre-stasis growth of 184 HMEC in different media and immunohistochemical staining for p16 protein. 184 HMEC were started in M85 and subcultured at passage 2 into M85 with cholera toxin with or without oxytocin, in 20% O2. […] Note the large cells staining for p16 with the small cells still negative for p16 but positive for LI (indicative of DNA synthesis).
(§1) Short-term growth assays are done by measuring 24 hr labeling index (LI) at midconfluence and p16 expression and cell numbers at confluence in different media (as shown in FIG. 13). […] Other assays will transfer growing populations a few passages before stasis to media lacking specific components and assay LI and p16 (as shown in FIG. 12).

pre-stasis HMEC [2] = assay: Long-term growth of pre-stasis HMEC: total population doublings (PD) prior to stasis; settings: for total PD with oxytocin added to M85: oxytocin added at primary culture or passage 2
Procedure: See FIG. 7, where the increased PD shown by HMEC from specimen 184, batch ⋄, is also seen in HMEC obtained from the 2 other donors tested, 48R, batch T, and 240L, batch B. Specimen 240L was grown only in M85 with oxytocin from primary organoids. Specimen 48R was grown in M85±oxytocin from primary organoids. For comparison, growth of specimen 184 in MM is shown. 184 HMEC batch ⋄ and 48RT+oxytocin were grown in 20% O2. The other cultures were grown in 3% O2.
HMEC placed in a medium containing ˜1% serum and conditioned media (MM) have active growth for ˜15-30 PD; cells grown in a serum-free medium (MCDB170) show active proliferation for ˜10-20 PD; HMEC grown in MM in a low oxygen environment (3% vs. 20%) grow for an additional ˜4 PD.
as §1

Compound	proliferation as the cells approach stasis (pre-stasis HMEC [1])	p16 expression with oxytocin compared to without (p16 protein)	growth conditions at the lower oxytocin concentration (pre-stasis HMEC [2]; 0.1 nM compared with 1.0 nM oxytocin)	PD potential in the presence of oxytocin (pre-stasis HMEC [2]; 184 HMEC in M85 with or without oxytocin)	increase in population doublings by oxytocin (pre-stasis HMEC [2]; M85 base medium, about 45 PD to about 60 PD) [%]	total PD with oxytocin added to M85 (pre-stasis HMEC [2]; M85 base medium)	total PD with oxytocin added to M85 (pre-stasis HMEC [2]; M85 base medium, listed as Oxytocin)
laminin	more proliferation occurred	–	–	–	–	–	–
CC[C@H](C)[C@@H]1NC(=O)[C@H](Cc2ccc(O)cc2)NC(=O)[C@@H](N)CSSC[C@@H](C(=O)N2CCC[C@H]2C(=O)N[C@@H](CC(C)C)C(=O)NCC(N)=O)NC(=O)[C@H](CC(N)=O)NC(=O)[C@H](CCC(N)=O)NC1=O [oxytocin]	–	lower level of p16 expression	provided better growth conditions than 1.0 nM	greatly increased PD potential; also recorded: significant increase in total PD	33	around 60 PD	up to 60 PD
